The target in one data set is T1, recombinant ALOX5 (Homo sapiens, UniProt P09917).
T1 sequence (P09917 1-674): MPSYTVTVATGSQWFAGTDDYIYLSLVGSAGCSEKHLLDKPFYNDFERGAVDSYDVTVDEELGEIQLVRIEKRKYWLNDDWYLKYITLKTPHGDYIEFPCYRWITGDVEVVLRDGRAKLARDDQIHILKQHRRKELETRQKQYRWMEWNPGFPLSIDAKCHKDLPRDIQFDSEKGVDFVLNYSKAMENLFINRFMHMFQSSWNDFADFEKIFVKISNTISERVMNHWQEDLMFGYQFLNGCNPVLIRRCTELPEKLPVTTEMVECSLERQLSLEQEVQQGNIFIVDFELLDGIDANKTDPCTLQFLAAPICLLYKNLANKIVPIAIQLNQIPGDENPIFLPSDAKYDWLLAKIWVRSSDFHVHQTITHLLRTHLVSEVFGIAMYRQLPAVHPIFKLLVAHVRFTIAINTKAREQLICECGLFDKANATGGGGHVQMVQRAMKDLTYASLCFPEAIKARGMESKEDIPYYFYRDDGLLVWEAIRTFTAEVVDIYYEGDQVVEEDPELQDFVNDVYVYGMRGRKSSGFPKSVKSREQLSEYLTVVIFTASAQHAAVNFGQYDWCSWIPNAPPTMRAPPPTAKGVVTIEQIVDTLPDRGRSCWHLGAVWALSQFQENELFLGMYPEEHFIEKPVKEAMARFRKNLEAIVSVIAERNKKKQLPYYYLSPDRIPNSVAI
The data set can be described thus: Lipoxygenase UV/Vis-based IC50 assay with recombinant ALOX5. The conditions noted are these: test tube assay. In kind it is biochemical. The procedure: Lipoxygenase UV/Vis-based IC50 assay: Inhibition potencies were determined by following the formation of conjugated diene products, 5-HpETE [ε=27000 M^−1 cm^−1 for AA turnover) at 234 nm using a UV/Vis spectrophotometer. All reaction mixtures were 2 mL in volume, and the reaction mixtures were constantly stirred using a magnetic stir bar at room temperature (23° C.). All reactions were carried out in a buffer containing 200 μM ATP and 10 μM AA. The AA concentration of a sample was verified by full turnover with soybean-1 lipoxygenase and quantifying the product concentration. Inhibitors were stored in DMSO at −20° C. Enzymatic reactions were initiated by adding approximately 100 nM-300 nM ammonium sulfate-precipitated wildtype enzyme. IC50 values were obtained by determining the enzymatic rate at a minimum of five inhibitor concentrations, plotting the enzymatic rate against inhibitor concentration, and performing a hyperbolic saturation curve fit. Inhibitor concentrations were assayed in duplicate or triplicate.
Significance was determined by two-way ANOVA and Bonferroni's post hoc test.

Another data set has as its system primary cortical neurons. As to the kind of experiment: cells. Format: cell-based, mouse. The conditions noted are these: Mus musculus, Primary cortical neuron; 100 μM hemin, primary cortical neurons; read-out: EC50 for reduction of hemin-induced toxicity/ferroptosis. The procedure: Primary cortical neuronal cultures: Primary cortical neurons were collected from embryonic (E15) CD1 mice. The cortices of the mice were dissected, homogenized, and plated in minimum essential medium containing 10% fetal bovine serum (FBS), 5% horse serum, and 1% penicillin/streptomycin in 96-well plates, 6-well plates, or 10-cm dishes. The neurons were maintained at 37° C. with 5% CO2. All experiments were conducted 24 hours after plating.
In vitro ICH model: Ferroptosis is a type of programmed cell death that is dependent on iron, and is characterized by the accumulation of lipid peroxides. Ferroptosis is genetically and biochemically distinct from other forms of regulated cell death such as apoptosis. Ferroptosis is initiated by the failure of the glutathione-dependent antioxidant defenses, resulting in unchecked lipid peroxidation and eventual cell death.
Cell death was induced in primary cortical neurons by treating the neurons with hemin, a blood breakdown product. For the neuroprotection studies, cells were treated with hemin (100 μM) in the presence of NAC (0.1 mM to 1mM), 6-hydroxy-2,5,7,8-tetramethylchroman-2-carboxylic acid (trolox; 0.1 μM to 100 μM), β-carotene (0.1 μM to 100 μM) α-lipoic acid (0.01 mM to 2 mM), glutathione ethyl ester (1 mM to 10 mM), oxothiazolidine-4-carboxylate (1 mM to 10 mM), cystamine (0.1 μM to 10 μM), or nordihydroguaiaretic acid (0.1 μM to 10 μM). Cell viability was analyzed 24 h after treatment. The cells were rinsed with warm phosphate-buffered saline (PBS) and assessed using an MTT assay. The fidelity of the MTT assays in measuring viability was verified by calcein-AM/ethidium homodimer-1 staining (Live/Dead assay).
The ability of NAC to protect cells was investigated in a hemin model of hemorrhagic stroke. The in vitro model of ICH involved the administration of hemin, a breakdown product of hemoglobin from lysed blood, to trigger cell death. Treatment of primary cortical neurons with 100 μM hemin induced widespread cell death through a ferroptotic mechanism, which was quantified with MTT and qualitatively observed using live/dead staining. Living cells were labeled with calcein-AM, and dead cells were labeled with ethidium homodimer. […] Scale bars: 100 μm.
A systematic pharmacological screening of oxidized lipid species inhibitors in the context of hemin-induced cell death was performed in primary cortical neurons. Primary cortical neurons were co-treated with hemin and a non-specific or enzymatic lipid peroxidation inhibitor. The MTT assays were performed 18 h following the co-treatment.

Data set [1] has as its system total glutathione. The data set can be described thus: Total glutathione levels in neurons by HPLC. In kind it is cell-based, mouse. The following applies: 0.1 or 1.0 mM NAC, presence or absence of hemin. An excerpt: Cysteine is the rate-limiting precursor for the synthesis of glutathione with γ-glutamylcysteine synthetase and glutathione synthetase. NAC undergoes hydrolysis to liberate cysteine, which is transported by the alanine-serine cysteine (ASC) system. To determine whether NAC-induced protection from heme requires glutathione, glutathione synthesis was inhibited using buthionine sulfoximine (BSO), a selective inhibitor of γ-glutamylcysteine synthetase, the rate limiting step in glutathione synthesis. The necessity of a NAC-induced increase in glutathione, and whether NAC-induced protection could be abrogated were evaluated. A reduction in glutathione levels was measured using HPLC. […] In the presence of hemin, the absolute levels of glutathione were reduced. […] Significance was determined by two-way ANOVA followed by Bonferroni's comparison test, from three independent experiments.

For data set [2], the system named is collagenase-induced mouse model of ICH. As to the kind of experiment: In vivo collagenase-induced mouse model of ICH (Fluoro-Jade staining, corner task, adhesive tape removal task, hematoma size).
Protocol: In vivo collagenase-induced mouse model of ICH: Male C57BL/6 mice (8 to 10 weeks of age) or mice (10 to 12 weeks of age) were anesthetized with isoflurane (2% to 5%) and placed on a stereotaxic frame. During the procedure, the animal's body temperature was maintained at 37° C. with a homeothermic blanket. 1 mL of collagenase (0.075 IU) was infused into the right striatum at a flow rate of 0.120 μL/min using a Nanomite® syringe pump and a syringe. Relative to the bregma point, the stereotaxic coordinates of the injection were: lateral, −0.20; anteroposterior, 0.62; and dorsoventral, −0.40. In control animals, 1 mL of saline was infused. The treatment group received NAC (75 mg/kg or 300 mg/kg in normal saline, I.P.) once a day for 7 days starting at 2 h after collagenase infusion. For combinatorial studies, NAC (40 mg/kg, I.P.) and PGE 2 (10 μM, ICV) were administered to the mice 2 h after the collagenase injection, and then NAC (40 mg/kg) was administered once daily for 7 days. The control groups received the vehicle (normal saline) alone. The animals were randomized to sham or ICH groups. The identities of the mice that received vehicle or NAC were masked to surgeons who performed the experiments. […] Proper postoperative care was provided until the animals recovered completely.
Behavioral analysis: The corner task assessed integrated sensorimotor function in the stimulation of vibrissae (sensory neglect) and rearing (motor response). Mice were placed between two cardboard pieces that formed a corner with a 30° angle. While maintaining the 30° angle, the boards were gradually moved toward the mouse until the mouse approached the corner, reared upward, and turned 180° to face the open end. The direction (left or right) in which the mouse turned was recorded for each trial. Ten trials were performed for each mouse.
For the sensory neglect task (adhesive tape removal task), adhesive tape was placed on the planter region of the forward paw (right and left) of each mouse. The time from which the tape was applied to when the mouse successfully removed the tape was recorded for each paw. A maximum of 300 s for each paw was allowed.
Fluoro-Jade® B staining: Neurodegeneration of cells was assessed in mice with collagenase-induced ICH using Fluoro-Jade® B staining. 40 μM brain sections were mounted on gelatin-coated slides and dried at room temperature overnight. The sections were immersed in a graded series of alcohol solutions before being immersed in a 0.06% potassium permanganate (KMnO4) solution for 15 min. Sections were washed with water before being immersed in a 0.001% Fluoro-Jade® staining solution with gentle shaking in the dark for 30 min. The sections were then washed with water and dried overnight at room temperature in the dark before being dehydrated and coverslipped with DPX. Fluoro-Jade® B staining was examined within perihematoma or hematoma regions using a fluorescence microscope. Quantification of Fluoro-Jade® B staining was performed using three brain sections (anterior to posterior of hematoma) using Metamorph analysis.
The vehicle or NAC was then administered daily up to 7 days following the ictus. Neuronal loss was determined using a non-specific marker of neurodegeneration, Fluoro-Jade® staining. […] Mouse behavior was assessed using a corner task (spatial neglect) and an adhesive tape removal task (sensory neglect). Mouse behavior was assessed on day 1, 3, and 7 after the induction of ICH.
Data set [3] relates to total glutathione. The data set can be described thus: Total glutathione levels in striatum of collagenase-infused ICH mice by HPLC. The conditions noted are these: ICH mice after NAC treatment. In kind it is in vivo, mouse. An excerpt:
Total glutathione levels were unchanged after NAC treatment in ICH mice. […] FIG. 29 illustrates an experimental design to study the effect of NAC on total glutathione levels in the striatum of a collagenase infusion mouse model of ICH.

The mark [4] stands for this setting: NAC 40 mg/kg i.p. and/or PGE2 10 μM ICV, days 1, 3, 7.

Here are results for 1 compound from patent publication US11963939B2, “Use of N-acetylcysteine to treat central nervous system disorders” (Neuronasal, Inc., priority 2017, dated 2024).

Consider `CC(=O)N[C@@H](CS)C(=O)O` [NAC, N-acetylcysteine], for which the “Inhibition of ALOX5 activity” value at recombinant ALOX5 is reported as “did not inhibit ALOX5 activity”. Further, in the data set with primary cortical neurons, the EC50 is 500 µM. Besides, the “Total glutathione levels in neurons” value in the data set with total glutathione [1] is recorded as “dose-dependently increased the total glutathione levels”. Also, the “Lesion volume and functional recovery” value in the data set on ICH model of rats (40 mg/kg or 75 mg/kg, 2 h post-ICH) is “not effective in reducing lesion volume or improving functional recovery”. The “Toxicity of higher doses” value in the data set with ICH model of rats (300 mg/kg) was “caused significant toxicity in rats, including paralytic ileus and/or death”. Also, the “Highest dose tolerated without toxicity” value in the data set on ICH model of rats (ICH model) is given as 40 mg/kg. Moreover, the “Hematoma size by light microscopy” value in data set [2] (75 mg/kg or 300 mg/kg NAC vs control ICH group) is listed as “No significant difference”. In addition, in data set [2] (300 mg/kg NAC, days 1, 3, 7), the “Adhesive tape removal task (sensory neglect)” value is recorded as “improvements in sensory neglect were observed” and the “Corner turn task deficits (spatial neglect)” value is listed as “corrected by administration of 300 mg/kg NAC”. In data set [2] (setting [4]), the “Sensory neglect (adhesive tape removal task) behavioral deficits” value was “no effect” and the “Spatial neglect (corner task) behavioral deficits” value is listed as “no effect”. Also, the “Neuronal degeneration in perihematomal regions (Fluoro-Jade staining)” value in data set [2] (NAC 40 mg/kg i.p. daily 7 days and/or dmPGE2 10 μM ICV 2 h post-injury) is reported as “no significant effect”. In addition, the “Neuronal degeneration in perihematomal regions (Fluoro-Jade staining)” value in data set [2] (NAC 300 mg/kg I.P. daily from 2 h post-ICH, day 7) is recorded as “reduced neuronal degeneration in perihematomal regions”. Also, in data set [2] (NAC 300 mg/kg, 24 h after collagenase injection), the “Collagenase activity by hematoma size” value is on record as “did not inhibit or affect collagenase activity”. Moreover, the “Total glutathione levels in striatum” value in the data set on total glutathione [3] was “unchanged”.
